The record followed here is patent US6924251B1, “Substituted benzoylcyclohexandiones” (Bayer Aktiengesellschaft, priority 1998, dated 2005).

The test system of data set [1] is weeds. The data set can be described thus: Post-emergence test, activity against weeds. The format is in vivo. How it is done:
(§1) • Solvent: 5 parts by weight of acetone • Emulsifier: 1 part by weight of alkylaryl polyglycol ether
(§2) To produce a suitable preparation of active compound, 1 part by weight of active compound is mixed with the stated amount of solvent, the stated amount of emulsifier is added and the concentrate is diluted with water to the desired concentration.
(§3) Test plants which have a height of 5-15 cm are sprayed with the preparation of active compound in such a way that the particular amounts of active compound desired are applied per unit area. The concentration of the spray liquor is chosen so that the particular amounts of active compound desired are applied in 1000 1 of water/ha.
(§4) After three weeks, the degree of damage to the plants is assesssed in % damage in comparison to the development of the untreated control.

The test system of data set [2] is Amaranthus. The data set can be described thus: Post emergence test/greenhouse. It counts as in vivo. Particulars: after three weeks. The protocol: as §1, §2, §3, §4
For data set [3], the system named is Maize. In words: Post emergence test/greenhouse. The format is in vivo. The note with it: after three weeks. How it is done: as §1, §2, §3, §4
In data set [4] the test system is Sinapis. In words: Post emergence test/greenhouse. Particulars: after three weeks. It counts as in vivo. The protocol: as §1, §2, §3, §4
Data set [5] in a line: logP determination by HPLC (reversed-phase C18), EEC Directive 79/831 Annex V.A8. Particulars: reversed-phase C18 HPLC column.
Data set [6] concerns Cyperus. The data set can be described thus: Pre-emergence test/greenhouse. It counts as in vivo. The note with it: after three weeks. The protocol:
as §1, §2
(§5) Seeds of the test plants are sown in normal soil. After approximately 24 hours, the soil is sprayed with the preparation of active compound such that the particular amount of active compound desired is applied per unit area. The concentration of the spray liquor is chosen so that the particular amount of active compound desired is applied in 1000 liters of water per hectare.
as §4

The subject of data set [7] is Maize. In words: Pre-emergence test/greenhouse. The note with it: 500 g ai./ha, after three weeks. The format is in vivo. The protocol: as §1, §2, §5, §4
In data set [8] the test system is Abutilon. In words: Pre-emergence test/greenhouse. The note with it: after three weeks. It counts as in vivo. The protocol: as §1, §2, §5, §4
Data set [9] concerns weeds. In words: Pre-emergence test, activity against weeds. The format is in vivo. The protocol: as §1, §2, §5, §4

Each structure is given as a SMILES string.

As for `CCOc1nn(Cc2cc(Br)ccc2C(=O)C2C(=O)CCCC2=O)c(=O)n1C` [compound 15], the activity against weeds result in [1] is given as “strong activity”. Further, the “% damage Amaranthus” value in data set [2] (1000 g ai./ha) was 90%. Also, in data set [3] (1000 g ai./ha), the “% damage Maize” value came to 0%. The “% damage Sinapis” value in [4] (1000 g ai./ha) is reported as 80%.

As for `Cn1c(C(F)(F)F)nn(-c2ccc(C(=O)C3C(=O)CCCC3=O)c(Cl)c2)c1=O` [compound 2, 2-[4-(2,6-dioxocyclohexylcarbonyl)-3-chloro-phenyl]4-methyl-5-trifluoromethyl-2,4-dihydro-3H-1,2,4-triazol-3′-one], the melting point was determined as 182 °C. In data set [5] (pH 2), the chromatographic logP turned out to be 3.13.

On to `CCOn1c(CC)nn(Cc2cc(Br)ccc2C(=O)C2C(=O)CCCC2=O)c1=O` [compound 10], for which the activity against weeds entry in [1] and in data set [9] was “strong activity” in each case. Besides, in data set [2] (500 g ai./ha), the “% damage Amaranthus” value is given as 95%. Besides, the “% damage Maize” value came to 20% in data set [3] (500 g ai./ha) and 0% in data set [7]. Moreover, the “% damage Sinapis” value in data set [4] (500 g ai./ha) is 80%. Further, in data set [6] (500 g ai./ha), the “% damage Cyperus” value was determined as 100%. Further, in data set [8] (500 g ai./ha), the “% damage Abutilon” value came to 90%. The compound also showed a chromatographic logP in data set [5] of 2.68.

For the compound `CCOc1nn(Cc2cc(C(F)(F)F)ccc2C(=O)C2C(=O)CCCC2=O)c(=O)n1C` [compound 1, 5-ethoxy-4-methyl-2-[2-(2,6-dioxo-cyclohexyl-carbonyl)-5-trifluoromethyl-benzyl]-2,4-dihydro-3H-1,2,4-triazol-3-one], the “% damage Cyperus” value in data set [6] (1000 g ai./ha) turned out to be 100%. In data set [8] (1000 g ai./ha), the “% damage Abutilon” value was found to be 100%. Also, the chromatographic logP in [5] (pH 2) was 2.7. In data set [9], the activity against weeds entry was “strong activity”.

In turn, `Cn1c(C(F)(F)F)nn(Cc2c(Cl)ccc(C(=O)O)c2Cl)c1=O` [III-3, 4-methyl-5-trifluoromethyl-2-(2,6-dichloro-3-carboxy-benzyl)-2,4-dihydro-3H-1,2,4-triazol-3-one] yielded a melting point of 207 °C.

By chromatographic logP is commonly meant a lipophilicity value derived from retention on a column. By melting point is commonly meant the temperature of the solid-liquid transition.
